# Measurements: patent US20220040086A1, “FORMULATION AND AEROSOL CANISTERS, INHALERS, AND THE LIKE CONTAINING THE FORMULATION” (KINDEVA DRUG DELIVERY L.P., priority 2018, published 2022)
# Tests used:
# [1] = Rehydration of anhydrous ipratropium bromide (sample weight over time); format: physicochemical
# Description: The weight of the powder after heating was 9.563 g. The sample was weighed every 10 minutes for 90 minutes and then left over the weekend at 24° C. and 30% humidity.
# The sample was then placed in a desiccator for 24 hours and weighed again.
# [2] = 50 mg in 2 g Malvern dispersant (lecithin in isooctane), sonicated 3 minutes
# [3] = 30 mg in 30 mL 2H,3H-decafluoropentane, sonic probe 1 minute
# Description: 30 mg of the resulting anhydrous ipratropium bromide was added to a glass sample jar followed by 30 mL of 2H,3H-decafluoropentane.
# [4] = general statement
# Text: The two formulations were examined by microscope after 2 and 4 weeks storage at ambient temperature and humidity. Each vial was sprayed onto a microscope slide via a standard 3M MK6 actuator.
# [5] = Differential scanning calorimetry thermogram; format: physicochemical; conditions: DSC thermogram
# Text: Ipratropium, in particular ipratropium bromide, is commercially available as a hydrate, and more particularly as the monohydrate. Dehydration of hydrated ipratropium, in particular ipratropium bromide monohydrate, can be achieved by any suitable method. […] A particularly suitable method is heating the particulate ipratropium, in particular ipratropium bromide monohydrate, in a drying oven for a period of time. The drying oven can be heated to a temperature high enough to remove the water. […] Useful oven temperatures at ambient pressure include at least 100° C., at least 110° C., at least 120° C., at least 125° C., no greater than 240° C., no greater than 230° C., no greater than 225° C., between 100° C. and 240° C., between 110° C. and 230° C., between 120° C. and 220° C., between 125° C. and 215° C., or more particularly about 125° C. The use of pressures less than ambient pressure, such as in a vacuum oven, can be useful in reducing the temperature for dehydration. The time necessary to dehydrate the particulate ipratropium, in particular ipratropium bromide monohydrate, is the amount of time it takes to remove the desired amount of water from the particulate ipratropium. If the amount of water in a sample of particulate ipratropium is known, complete dehydration is complete when the mass of the remaining ipratropium is essentially anhydrous ipratropium. […]
smiles,measurement,setting,value
CC(C)[N+]1(C)[C@@H]2CC[C@H]1CC(OC(=O)C(CO)c1ccccc1)C2.[Br-] (stereo partly shown) [anhydrous ipratropium bromide],Sample weight,[1]; 10 mins,9.597 g
same,Sample weight,[1]; 20 mins,9.600 g
same,Sample weight,[1]; 30 mins,9.601 g
same,Sample weight,[1]; 40 mins,9.602 g
same,Sample weight,[1]; 50 mins,9.603 g
same,Sample weight,[1]; 60 mins,9.603 g
same,Sample weight,[1]; 70 mins,9.602 g
same,Sample weight,[1]; 80 mins,9.602 g
same,Sample weight,[1]; 90 mins,9.603 g
same,Sample weight,[1]; 2.5 days at 24° C. and 30% humidity,9.606 g
same,weight decrease relative to unmicronized ipratropium bromide monohydrate starting material,[1]; after 2.5 days at 24° C. and 30% humidity (9.606 g),3.94%
same,Sample weight,[1]; after a further 24 hours in a desiccator,9.568 g
same,weight loss relative to unmicronized ipratropium bromide monohydrate starting material,[1]; after a further 24 hours in a desiccator (9.568 g),4.14%
same,agglomerates under a microscope,[2],essentially free of agglomerates
same,dispersion appearance,[2],dispersed satisfactorily
same,agglomeration observed with magnifying glass (x10),[3],significant agglomeration
CC(C)[N+]1(C)[C@@H]2CC[C@H]1CC(OC(=O)C(CO)c1ccccc1)C2.[Br-] (stereo partly shown) [anhydrous micronized ipratropium bromide],stability when formulated in a HFA propellant,[4],stable
CC(C)[N+]1(C)[C@@H]2CC[C@H]1C[C@@H](OC(=O)C(CO)c1ccccc1)C2.O.[Br-] (stereo partly shown) [ipratropium bromide monohydrate],degradation temperature,[5],approximately 240 °C
same,water loss starting temperature,[5],approximately 100 °C
CC(C)[N+]1(C)[C@@H]2CC[C@H]1C[C@@H](OC(=O)C(CO)c1ccccc1)C2.O.[Br-] (stereo partly shown) [micronized ipratropium bromide monohydrate],agglomerates under a microscope,[2],essentially free of agglomerates
same,dispersion appearance,[2],dispersed satisfactorily
same,agglomeration observed with magnifying glass (x10),[3],not
